These results are taken from PMC7898822, “RNA‐PROTACs: Degraders of RNA‐Binding Proteins” (Angewandte Chemie (International Ed. in English), 2020).

Molecules are shown by their SMILES.

In one assay the test system is Lin28A. As to the kind of experiment: Western blot of Lin28A in K562 cells. Format: cell-based, human. The source says: Finally, we tested RNA‐PROTACs for their ability to degrade their target in two cell lines: the embryonic NT2/D1 cell line, which expresses high levels of Lin28A, ^[13a] and K562 cells which express Lin28A and Lin28B. […] Finally, we co‐treated K562 cells with ORN3P1 and MG132, a reversible inhibitor of the 26S proteasome. […] In order to explore the versatility of RNA‐PROTACs with non peptide‐based VHL ligands, we conjugated small‐molecule VH032 ^[38] to ORN3 via an amino linker to yield ORN3VH032 (Figure S1). […]

Another assay deals with Lin28B. Kind of assay: Western blot of Lin28B in K562 cells. Format: cell-based, human. The conditions noted are these: 48 h. The source says:
Finally, we tested RNA‐PROTACs for their ability to degrade their target in two cell lines: the embryonic NT2/D1 cell line, which expresses high levels of Lin28A, ^[13a] and K562 cells which express Lin28A and Lin28B. […] Suppression of the target was not quantitative, as is often observed from testing PROTAC reagents without an optimization of the targeting ligand, the linker and the E3 system. Furthermore, there was no statistical difference in the activity of the 7‐mer and 11‐mer reagents. […] The reagents had no discernible effect on cell toxicity (Figure S11). […] Finally, we co‐treated K562 cells with ORN3P1 and MG132, a reversible inhibitor of the 26S proteasome. […]
oligonucleotides ([…]) into 15N-labeled Lin28-ZnF12 in 10 mM HEPES pH 7.0, 1.5 mM β-mercaptoethanol, 0.15 mM ZnCl2 and monitored by 1H-15N-HSQC at 303K.
Fluorescence Polarization Assay. Fluorescence polarization titration assay was carried out by titrating Lin28_ZKD protein into FAM-labeled PreE-let-7 at a 10 nM final concentration and buffer (10 mM HEPES, 150 mM NaCl, 10 µM ZiCl2, pH 7,4). […] The fluorescence anisotropy was measured on a Spectra Max Paradigm multimode plate reader (Molecular Devices). The fluorescence polarization competition assay was carried out in a similar fashion, except compounds were titrated into buffer containing Lin28_ZKD and FAM-labeled preE-let-7. […]
For orientation: In western blotting, separated proteins are transferred to a membrane and probed.

Another assay concerns the target T1, Lin28_ZKD (Homo sapiens, UniProt Q9H9Z2).
T1 construct: construct encoding amino acids 124–186 of human Lin28; His6; made in house; host or cells: Escherichia coli BL21 (DE3) Codon+ (RIL)
T1 sequence (Q9H9Z2 124-186): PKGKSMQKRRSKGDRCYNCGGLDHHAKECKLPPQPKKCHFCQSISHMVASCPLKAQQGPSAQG
Kind of assay: Fluorescence polarization competition assay (displacement of let7FAM from Lin28_ZKD). Format: binding. The conditions noted are these: competition FP, conjugate vs parent. The procedure: Fluorescence Polarization Assay. Fluorescence polarization titration assay was carried out by titrating Lin28_ZKD protein into FAM-labeled PreE-let-7 at a 10 nM final concentration and buffer (10 mM HEPES, 150 mM NaCl, 10 µM ZiCl2, pH 7,4). The assay plate was briefly vortexed, and air bubbles were removed by spinning at 1000 rpm. The fluorescence anisotropy was measured on a Spectra Max Paradigm multimode plate reader (Molecular Devices). The fluorescence polarization competition […]
preE-let-7. The concentration of Lin28_ ZKD is kept at 40 nM, a value in the range of the dissociation constant of Lin28_ZKD and preE-let-7 determined through fluorescence polarization titration assay, whereas preE-let-7 concentration is kept constant at 10 nM. FP competitive binding assays were performed on 384-well plates (#3575, Corning) with a total well volume of 10 µL.
Fluorescence polarization readings were transferred into Prism 7.0 (GraphPad). All fluorescence polarization assays were repeated at least three times and the anisotropy values fitted using GraphPad Prism software using 1:1 binding/inhibition model. […]
(In general: In fluorescence polarisation assays a small probe gives low polarisation when free and higher when bound to something large.)

In the case of `CC[C@H](C)[C@H](NC(=O)[C@H](Cc1ccc(O)cc1)NC(=O)[C@@H]1C[C@@H](O)CN1C(=O)[C@H](C)NC(=O)[C@H](CC(C)C)NC(=O)CCCCCNC(=O)[C@@H](N)CSC1CC(=O)N(CCOP(=O)(S)OC[C@H]2O[C@@H](n3cnc4c(N)ncnc43)[C@H](OCCOC)[C@@H]2OP(=O)(S)OC[C@H]2O[C@@H](n3cnc4c(=O)[nH]c(N)nc43)[C@H](OCCOC)[C@@H]2OP(=O)(S)OC[C@H]2O[C@@H](n3cnc4c(=O)[nH]c(N)nc43)[C@H](OCCOC)[C@@H]2OP(=O)(S)OC[C@H]2O[C@@H](n3cnc4c(N)ncnc43)[C@H](OCCOC)[C@@H]2OP(=O)(S)OC[C@H]2O[C@@H](n3cnc4c(=O)[nH]c(N)nc43)[C@H](OCCOC)[C@@H]2OP(=O)(S)OC[C@H]2O[C@@H](n3cnc4c(N)ncnc43)[C@H](OCCOC)[C@@H]2OP(=O)(S)OC[C@H]2O[C@@H](n3cc(C)c(=O)[nH]c3=O)[C@H](OCCOC)[C@@H]2O)C1=O)C(=O)O` (stereo partly shown) [ORN3P1], the “Lin28A suppression with MG132 co-treatment” value in the assay on Lin28A (K562 cells co-treated with 100 nM MG132, 48 h) is on record as “largely attenuated Lin28A suppression”. In addition, the “suppression of Lin28A” value in the assay with Lin28A (K562 cells, highest concentration, 48 h, western blot, three independent experiments) turned out to be 50%. Also, in the assay with Lin28B, the “effect on Lin28B” value is “little effect on Lin28B”. Moreover, the “competition for Lin28_ZKD relative to parent unconjugated oligonucleotides” value at Lin28_ZKD is given as “competed slightly more strongly”.
